Reference: patent US5840684A, “Glycopeptide antibiotic derivatives” (Eli Lilly and Company, priority 1995, dated 1998)
Converted amounts (≈) assume the structure as drawn.

Columns and labels:
Entercoccus faecium 2041 = test: broth micro-dilution MIC; format: cell-based; settings: Entercoccus faecium 2041
Method: (§1) The formula I compounds have in vitro and in vivo activity against Gram-positive pathogenic bacteria. The MIC's were determined using a standard broth micro-dilution assay.

[1] = tested on: Staphylococcus haemolyticus 415; test: broth micro-dilution MIC; format: cell-based
Method: as §1

[2] = tested on: Staphylococcus epidermidis 270; test: broth micro-dilution MIC; format: cell-based
Method: as §1

[3] = tested on: Enterococcus gallinarum 245; test: broth micro-dilution MIC; format: cell-based; settings: Enterococcus gallinarum 245
Method: as §1

Entercoccus faecium 180 = test: broth micro-dilution MIC; format: cell-based; settings: Entercoccus faecium 180
Method: as §1

[4] = tested on: Streptococcus pneumoniae P1; test: broth micro-dilution MIC; format: cell-based
Method: as §1

[5] = tested on: Staphylococcus haemolyticus 105; test: broth micro-dilution MIC; format: cell-based
Method: as §1

[6] = tested on: Staphylococcus aureus 447; test: broth micro-dilution MIC; format: cell-based
Method: (§2) The MIC's were determined using a standard broth micro-dilution assay.

[7] = tested on: Staphylococcus aureus 446; test: broth micro-dilution MIC; format: cell-based
Method: as §2

[8] = tested on: Staphylococcus aureus X778; test: broth micro-dilution MIC; format: cell-based
Method: as §2

[9] = tested on: Staphylococcus aureus 491; test: broth micro-dilution MIC; format: cell-based
Method: as §2

[10] = tested on: Staphylococcus aureus X400; test: broth micro-dilution MIC; format: cell-based
Method: as §2

[11] = tested on: Entercoccus faecium 180-1; test: broth micro-dilution MIC; format: cell-based
Method: as §2

[12] = tested on: Staphylococcus aureus SA1199; test: broth micro-dilution MIC; format: cell-based
Method: as §2

Entercoccus faecium 276 = test: broth micro-dilution MIC; format: cell-based
Method: as §2

[13] = tested on: Streptococcus pyogenes C203; test: broth micro-dilution MIC; format: cell-based
Method: as §2

[14] = tested on: Staphylococcus aureus SA1199A; test: broth micro-dilution MIC; format: cell-based
Method: as §2

[15] = tested on: vancomycin-resistant enterococci; test: broth micro-dilution, mean geometric MIC; format: cell-based, Enterococcus faecium and Enterococcus faecalis; settings: enterococci, 24-hour incubation
Streptococcus pneumoniae = test: mouse protection, experimentally-induced infection; format: in vivo; settings: mice infected with Streptococcus pneumoniae, two doses
[16] = tested on: Staphylococcus aureus S13E; format: cell-based
Method: as §2

Streptococcus pyogenes = test: mouse protection, experimentally-induced infection; format: in vivo; settings: mice infected with Streptococcus pyogenes, two doses
[17] = tested on: Staphylococcus aureus 489; test: broth micro-dilution MIC; format: cell-based
Method: as §2

[18] = tested on: vancomycin-susceptible enterococci; test: broth micro-dilution, mean geometric MIC; format: cell-based, Enterococcus faecium and Enterococcus faecalis; settings: enterococci, 24-hour incubation
[19] = tested on: Staphylococcus aureus SA1199B; format: cell-based
Method: as §2

| SMILES | MIC (Entercoccus faecium 2041) | MIC [1] | MIC [2] | MIC [3] | MIC [4] | MIC [5] | MIC [6] | MIC [7] | MIC [8] | MIC [10] | MIC [11] | MIC [12] | MIC [13] | MIC [14] | mean geometric MIC, Vancomycin Resistant Strains [15] | ED50 (Streptococcus pneumoniae) | MIC [16] | ED50 (Streptococcus pyogenes) | mean geometric MIC, Vancomycin Sensitive Strains [18] | MIC [19] | also measured |
| --- | --- | --- | --- | --- | --- | --- | --- | --- | --- | --- | --- | --- | --- | --- | --- | --- | --- | --- | --- | --- | --- |
| CCCCCCCCCOc1ccc(CNC2(C)CC(OC3C(Oc4c5cc6cc4Oc4ccc(cc4Cl)C(OC4CC(C)(N)C(O)C(C)O4)C4NC(=O)C(NC(=O)C6NC(=O)C(CC(N)=O)NC(=O)C(NC(=O)C(CC(C)C)NC)C(O)c6ccc(c(Cl)c6)O5)c5ccc(O)c(c5)-c5c(O)cc(O)cc5C(C(=O)O)NC4=O)OC(CO)C(O)C3O)OC(C)C2O)cc1 (stereo not drawn) [Compound 8] | 4 µg/mL (≈ 2.19 µM) | 8 µg/mL (≈ 4.38 µM) | 4 µg/mL (≈ 2.19 µM) | 8 µg/mL (≈ 4.38 µM) | ≤ 0.06 µg/mL | 8 µg/mL (≈ 4.38 µM) | 8 µg/mL (≈ 4.38 µM) | 2 µg/mL (≈ 1.1 µM) | 8 µg/mL (≈ 4.38 µM) | 8 µg/mL (≈ 4.38 µM) | 0.5 µg/mL (≈ 0.274 µM) | 2 µg/mL (≈ 1.1 µM) | ≤ 0.06 µg/mL | 2 µg/mL (≈ 1.1 µM) | 1.0 µg/mL | 0.273 mg/kg/2 | 8 µg/mL (≈ 4.38 µM) | > 0.5 mg/kg/2 |  |  | MIC (Entercoccus faecium 180): 1 µg/mL (≈ 0.548 µM); MIC [9]: 4 µg/mL (≈ 2.19 µM); MIC (Entercoccus faecium 276): 4 µg/mL (≈ 2.19 µM) |
| CNC(CC(C)C)C(=O)NC1C(=O)NC(CC(N)=O)C(=O)NC2C(=O)NC3C(=O)NC(C(=O)NC(C(=O)O)c4cc(O)cc(O)c4-c4cc3ccc4O)C(OC3CC(C)(N)C(O)C(C)O3)c3ccc(c(Cl)c3)Oc3cc2cc(c3OC2OC(CO)C(O)C(O)C2OC2CC(C)(NCc3ccc(Oc4cccc(Cl)c4)c([N+](=O)[O-])c3)C(O)C(C)O2)Oc2ccc(cc2Cl)C1O (stereo not drawn) [Compound 87] | ≤ 0.06 µg/mL | 2 µg/mL (≈ 1.08 µM) | 1 µg/mL (≈ 0.539 µM) | 2 µg/mL (≈ 1.08 µM) | ≤ 0.06 µg/mL | 1 µg/mL (≈ 0.539 µM) | 0.5 µg/mL (≈ 0.27 µM) | 1 µg/mL (≈ 0.539 µM) | 2 µg/mL (≈ 1.08 µM) | 1 µg/mL (≈ 0.539 µM) | ≤ 0.06 µg/mL | 2 µg/mL (≈ 1.08 µM) | ≤ 0.06 µg/mL | ≤ 0.06 µg/mL | 0.71 µg/mL | 0.027 mg/kg/2 | 0.5 µg/mL (≈ 0.27 µM) | 0.054 mg/kg/2 | 0.047 µg/mL | 0.5 µg/mL (≈ 0.27 µM) | MIC (Entercoccus faecium 180): ≤ 0.06 µg/mL; MIC [17]: 0.5 µg/mL (≈ 0.27 µM); MIC [9]: 2 µg/mL (≈ 1.08 µM); MIC (Entercoccus faecium 276): ≤ 0.06 µg/mL |
| CCc1ccc(-c2ccc(CNC3(C)CC(OC4C(Oc5c6cc7cc5Oc5ccc(cc5Cl)C(OC5CC(C)(N)C(O)C(C)O5)C5NC(=O)C(NC(=O)C7NC(=O)C(CC(N)=O)NC(=O)C(NC(=O)C(CC(C)C)NC)C(O)c7ccc(c(Cl)c7)O6)c6ccc(O)c(c6)-c6c(O)cc(O)cc6C(C(=O)O)NC5=O)OC(CO)C(O)C4O)OC(C)C3O)cc2)cc1 (stereo not drawn) [Compound 90] | 0.125 µg/mL (≈ 0.07 µM) | 2 µg/mL (≈ 1.12 µM) | 1 µg/mL (≈ 0.56 µM) | 2 µg/mL (≈ 1.12 µM) | ≤ 0.06 µg/mL | 2 µg/mL (≈ 1.12 µM) | 1 µg/mL (≈ 0.56 µM) | 2 µg/mL (≈ 1.12 µM) | 1 µg/mL (≈ 0.56 µM) | 1 µg/mL (≈ 0.56 µM) | ≤ 0.06 µg/mL | 2 µg/mL (≈ 1.12 µM) | ≤ 0.06 µg/mL | 0.5 µg/mL (≈ 0.28 µM) | 0.71 µg/mL | 0.049 mg/kg/2 | 1 µg/mL (≈ 0.56 µM) | 0.058 mg/kg/2 | 0.041 µg/mL | 1 µg/mL (≈ 0.56 µM) | MIC (Entercoccus faecium 180): 0.25 µg/mL (≈ 0.14 µM); MIC [17]: 2 µg/mL (≈ 1.12 µM); MIC [9]: 2 µg/mL (≈ 1.12 µM); MIC (Entercoccus faecium 276): 2 µg/mL (≈ 1.12 µM) |
| CN[C@H](CC(C)C)C(=O)N[C@H]1C(=O)N[C@@H](CC(N)=O)C(=O)N[C@H]2C(=O)N[C@H]3C(=O)N[C@H](C(=O)N[C@H](C(=O)O)c4cc(O)cc(O)c4-c4cc3ccc4O)[C@H](O[C@H]3C[C@](C)(N)[C@@H](O)[C@H](C)O3)c3ccc(c(Cl)c3)Oc3cc2cc(c3O[C@@H]2O[C@H](CO)[C@@H](O)[C@H](O)[C@H]2O[C@H]2C[C@](C)(NCc3ccc(Oc4ccc(Cl)cc4)c([N+](=O)[O-])c3)[C@@H](O)[C@H](C)O2)Oc2ccc(cc2Cl)[C@H]1O [Compound 94] | ≤ 0.06 µg/mL | 2 µg/mL (≈ 1.08 µM) | 1 µg/mL (≈ 0.539 µM) | 2 µg/mL (≈ 1.08 µM) | ≤ 0.06 µg/mL | 2 µg/mL (≈ 1.08 µM) | 0.5 µg/mL (≈ 0.27 µM) | 1 µg/mL (≈ 0.539 µM) | 0.5 µg/mL (≈ 0.27 µM) | 1 µg/mL (≈ 0.539 µM) | ≤ 0.06 µg/mL | 0.5 µg/mL (≈ 0.27 µM) | ≤ 0.06 µg/mL | ≤ 0.06 µg/mL | 0.50 µg/mL | 0.049 mg/kg/2 | 2 µg/mL (≈ 1.08 µM) | 0.16 mg/kg/2 | 0.041 µg/mL | 2 µg/mL (≈ 1.08 µM) | MIC [17]: 2 µg/mL (≈ 1.08 µM); MIC [9]: 0.5 µg/mL (≈ 0.27 µM); MIC (Entercoccus faecium 276): 0.125 µg/mL (≈ 0.0674 µM) |
| CN[C@H](CC(C)C)C(=O)N[C@H]1C(=O)N[C@@H](CC(N)=O)C(=O)N[C@H]2C(=O)N[C@H]3C(=O)N[C@H](C(=O)N[C@H](C(=O)O)c4cc(O)cc(O)c4-c4cc3ccc4O)[C@H](O[C@H]3C[C@](C)(N)[C@@H](O)[C@H](C)O3)c3ccc(c(Cl)c3)Oc3cc2cc(c3O[C@@H]2O[C@H](CO)[C@@H](O)[C@H](O)[C@H]2O[C@H]2C[C@](C)(NCc3ccc(-c4ccc(C)cc4)cc3)[C@@H](O)[C@H](C)O2)Oc2ccc(cc2Cl)[C@H]1O [Compound 97] | ≤ 0.06 µg/mL | 2 µg/mL (≈ 1.13 µM) | 1 µg/mL (≈ 0.564 µM) | 2 µg/mL (≈ 1.13 µM) | ≤ 0.06 µg/mL | 2 µg/mL (≈ 1.13 µM) | 1 µg/mL (≈ 0.564 µM) | 1 µg/mL (≈ 0.564 µM) |  | 1 µg/mL (≈ 0.564 µM) | ≤ 0.06 µg/mL | 2 µg/mL (≈ 1.13 µM) | ≤ 0.06 µg/mL | ≤ 0.06 µg/mL | 0.71 µg/mL | 0.038 mg/kg/2 |  | 0.066 mg/kg/2 | 0.054 µg/mL | 1 µg/mL (≈ 0.564 µM) | MIC [9]: 0.5 µg/mL (≈ 0.282 µM); MIC (Entercoccus faecium 276): ≤ 0.06 µg/mL |
| CCOc1cc(CNC2(C)CC(OC3C(Oc4c5cc6cc4Oc4ccc(cc4Cl)C(OC4CC(C)(N)C(O)C(C)O4)C4NC(=O)C(NC(=O)C6NC(=O)C(CC(N)=O)NC(=O)C(NC(=O)C(CC(C)C)NC)C(O)c6ccc(c(Cl)c6)O5)c5ccc(O)c(c5)-c5c(O)cc(O)cc5C(C(=O)O)NC4=O)OC(CO)C(O)C3O)OC(C)C2O)ccc1OCC1CCCCC1 (stereo not drawn) [Compound 105] |  | 1 µg/mL (≈ 0.544 µM) |  | 1 µg/mL (≈ 0.544 µM) | ≤ 0.06 µg/mL | 1 µg/mL (≈ 0.544 µM) | 0.5 µg/mL (≈ 0.272 µM) |  | 0.5 µg/mL (≈ 0.272 µM) | 0.5 µg/mL (≈ 0.272 µM) | ≤ 0.06 µg/mL | 1 µg/mL (≈ 0.544 µM) | ≤ 0.06 µg/mL |  | 0.84 µg/mL | 0.041 mg/kg/2 | 0.5 µg/mL (≈ 0.272 µM) | 0.12 mg/kg/2 | 0.062 µg/mL | 0.5 µg/mL (≈ 0.272 µM) | MIC [17]: 0.5 µg/mL (≈ 0.272 µM) |
| CNC(CC(C)C)C(=O)NC1C(=O)NC(CC(N)=O)C(=O)NC2C(=O)NC3C(=O)NC(C(=O)NC(C(=O)O)c4cc(O)cc(O)c4-c4cc3ccc4O)C(OC3CC(C)(N)C(O)C(C)O3)c3ccc(c(Cl)c3)Oc3cc2cc(c3OC2OC(CO)C(O)C(O)C2OC2CC(C)(NCc3ccc(OCCCc4ccccc4)cc3)C(O)C(C)O2)Oc2ccc(cc2Cl)C1O (stereo not drawn) [Compound 223] | ≤ 0.06 µg/mL | 1 µg/mL (≈ 0.55 µM) | 0.5 µg/mL (≈ 0.275 µM) | 1 µg/mL (≈ 0.55 µM) | ≤ 0.06 µg/mL | 1 µg/mL (≈ 0.55 µM) | 0.5 µg/mL (≈ 0.275 µM) |  | 1 µg/mL (≈ 0.55 µM) | 1 µg/mL (≈ 0.55 µM) | ≤ 0.06 µg/mL | 2 µg/mL (≈ 1.1 µM) | ≤ 0.06 µg/mL | ≤ 0.06 µg/mL | 0.79 µg/mL | < 0.031 mg/kg/2 | 0.5 µg/mL (≈ 0.275 µM) | < 0.031 mg/kg/2 | 0.055 µg/mL | 1 µg/mL (≈ 0.55 µM) | MIC (Entercoccus faecium 180): ≤ 0.06 µg/mL; MIC [17]: 1 µg/mL (≈ 0.55 µM) |
